Values of other authors as cited in patent US20260124292A1, “MU[…] INFLUENZA VACCINE” (priority 2022, published 2026).

System: influenza A virus-specific CTL
Conditions: according to Boon et al. 2006
For CTELKLSDY [SEQ ID NO: 4], the Immunodominance is given as “(Intermediate”.
In the case of “ELRSRYWAI (listed as Alphainfluenzavirus influenzae) [SEQ ID NO: 2]”, the Immunodominance is given as “(Intermediate”.
In the case of “RRSGAAGAAVK (listed as Alphainfluenzavirus influenzae) [SEQ ID NO: 16]”, the Immunodominance is listed as “(Highly”.
In the case of “SRYWAIRTR (listed as Alphainfluenzavirus influenzae) [SEQ ID NO: 3]”, the Immunodominance is listed as “(Highly”.
